# Reference: ChEMBL document CHEMBL3046559, “Sterile oat (Avena sterilis L.) cross-resistance profile to ACCase-inhibiting herbicides in Greece” (2012)
# Legend:
# Format in all cases: functional
# Avena sterilis [1] = test: Herbicidal activity against Avena sterilis accession P14 assessed as weed survival at 1 times field recommended herbicide dose
# Avena sterilis [2] = test: Herbicidal activity against Avena sterilis accession P08 assessed as weed survival at 1 times field recommended herbicide dose
# Avena sterilis [3] = test: Herbicidal activity against Avena sterilis accession P21S assessed as weed survival at 1/32 times field recommended herbicide dose
# Avena sterilis [4] = test: Herbicidal activity against Avena sterilis accession P19S assessed as weed survival at 1/32 times field recommended herbicide dose
# Avena sterilis [5] = test: Herbicidal activity against Avena sterilis accession P13S assessed as weed survival at 1/32 times field recommended herbicide dose
# Avena sterilis [6] = test: Herbicidal activity against Avena sterilis accession P10S assessed as weed survival at 1/32 times field recommended herbicide dose
# Avena sterilis [7] = test: Herbicidal activity against Avena sterilis accession P20 assessed as weed survival at 32 times field recommended herbicide dose
# Avena sterilis [8] = test: Herbicidal activity against Avena sterilis accession P18 assessed as weed survival at 32 times field recommended herbicide dose
# Avena sterilis [9] = test: Herbicidal activity against Avena sterilis accession P17 assessed as weed survival at 32 times field recommended herbicide dose
# Avena sterilis [10] = test: Herbicidal activity against Avena sterilis accession P03 assessed as weed survival at 1 times field recommended herbicide dose
# Avena sterilis [11] = test: Herbicidal activity against Avena sterilis accession P01 assessed as weed survival at 1 times field recommended herbicide dose
# Avena sterilis [12] = test: Herbicidal activity against Avena sterilis accession P19S assessed as induction of weed mortality
# Avena sterilis [13] = test: Herbicidal activity against Avena sterilis accession P22 assessed as induction of weed mortality
# Avena sterilis [14] = test: Herbicidal activity against Avena sterilis accession P20 assessed as induction of weed mortality
# Avena sterilis [15] = test: Herbicidal activity against Avena sterilis accession P17 assessed as induction of weed mortality
# Avena sterilis [16] = test: Herbicidal activity against Avena sterilis accession P15 assessed as induction of weed mortality
# Avena sterilis [17] = test: Herbicidal activity against Avena sterilis accession P08 assessed as induction of weed mortality
# Avena sterilis [18] = test: Herbicidal activity against Avena sterilis accession P03 assessed as induction of weed mortality
# Avena sterilis [19] = test: Herbicidal activity against Avena sterilis accession P02 assessed as induction of weed mortality
# Avena sterilis [20] = test: Herbicidal activity against Avena sterilis accession P15 assessed as weed survival at 8 times field recommended herbicide dose
# Avena sterilis [21] = test: Herbicidal activity against Avena sterilis accession P16 assessed as weed survival at 32 times field recommended herbicide dose
# Avena sterilis [22] = test: Herbicidal activity against Avena sterilis accession P15 assessed as weed survival at 32 times field recommended herbicide dose
# Avena sterilis [23] = test: Herbicidal activity against Avena sterilis accession P14 assessed as weed survival at 32 times field recommended herbicide dose
# Avena sterilis [24] = test: Herbicidal activity against Avena sterilis accession P12 assessed as weed survival at 32 times field recommended herbicide dose
# Avena sterilis [25] = test: Herbicidal activity against Avena sterilis accession P09 assessed as weed survival at 32 times field recommended herbicide dose
# Avena sterilis [26] = test: Herbicidal activity against Avena sterilis accession P08 assessed as weed survival at 32 times field recommended herbicide dose
# Avena sterilis [27] = test: Herbicidal activity against Avena sterilis accession P03 assessed as weed survival at 32 times field recommended herbicide dose
# Avena sterilis [28] = test: Herbicidal activity against Avena sterilis accession P13S assessed as weed survival at 1/16 times field recommended herbicide dose
# Avena sterilis [29] = test: Herbicidal activity against Avena sterilis accession P10S assessed as weed survival at 1/16 times field recommended herbicide dose
# Avena sterilis [30] = test: Herbicidal activity against Avena sterilis accession P06S assessed as weed survival at 1/16 times field recommended herbicide dose
# Avena sterilis [31] = test: Herbicidal activity against Avena sterilis accession P20 assessed as weed survival at 16 times field recommended herbicide dose
# Avena sterilis [32] = test: Herbicidal activity against Avena sterilis accession P15 assessed as weed survival at 16 times field recommended herbicide dose
# Avena sterilis [33] = test: Herbicidal activity against Avena sterilis accession P14 assessed as weed survival at 16 times field recommended herbicide dose
# Avena sterilis [34] = test: Herbicidal activity against Avena sterilis accession P12 assessed as weed survival at 16 times field recommended herbicide dose
# Avena sterilis [35] = test: Herbicidal activity against Avena sterilis accession P09 assessed as weed survival at 16 times field recommended herbicide dose
# Avena sterilis [36] = test: Herbicidal activity against Avena sterilis accession P03 assessed as weed survival at 16 times field recommended herbicide dose
# Avena sterilis [37] = test: Herbicidal activity against Avena sterilis accession P02 assessed as weed survival at 16 times field recommended herbicide dose
# Avena sterilis [38] = test: Herbicidal activity against Avena sterilis accession P01 assessed as weed survival at 16 times field recommended herbicide dose
# Avena sterilis [39] = test: Herbicidal activity against Avena sterilis accession P13S assessed as weed survival at 1/8 times field recommended herbicide dose
# Avena sterilis [40] = test: Herbicidal activity against Avena sterilis accession P10S assessed as weed survival at 1/8 times field recommended herbicide dose
# Avena sterilis [41] = test: Herbicidal activity against Avena sterilis accession P20 assessed as weed survival at 8 times field recommended herbicide dose
# Avena sterilis [42] = test: Herbicidal activity against Avena sterilis accession P18 assessed as weed survival at 8 times field recommended herbicide dose
# Avena sterilis [43] = test: Herbicidal activity against Avena sterilis accession P09 assessed as weed survival at 8 times field recommended herbicide dose
# Avena sterilis [44] = test: Herbicidal activity against Avena sterilis accession P01 assessed as weed survival at 8 times field recommended herbicide dose
# Avena sterilis [45] = test: Herbicidal activity against Avena sterilis accession P20 assessed as weed survival at 4 times field recommended herbicide dose
# Avena sterilis [46] = test: Herbicidal activity against Avena sterilis accession P17 assessed as weed survival at 4 times field recommended herbicide dose
# Avena sterilis [47] = test: Herbicidal activity against Avena sterilis accession P18 assessed as weed survival at 4 times field recommended herbicide dose
# Avena sterilis [48] = test: Herbicidal activity against Avena sterilis accession P15 assessed as weed survival at 4 times field recommended herbicide dose
# Avena sterilis [49] = test: Herbicidal activity against Avena sterilis accession P12 assessed as weed survival at 4 times field recommended herbicide dose
# Avena sterilis [50] = test: Herbicidal activity against Avena sterilis accession P11 assessed as weed survival at 4 times field recommended herbicide dose
# Avena sterilis [51] = test: Herbicidal activity against Avena sterilis accession P09 assessed as weed survival at 4 times field recommended herbicide dose
# Avena sterilis [52] = test: Herbicidal activity against Avena sterilis accession P05 assessed as weed survival at 4 times field recommended herbicide dose
# Avena sterilis [53] = test: Herbicidal activity against Avena sterilis accession P06S assessed as weed survival at 1 times field recommended herbicide dose
# Avena sterilis [54] = test: Herbicidal activity against Avena sterilis accession P20 assessed as weed survival at 1 times field recommended herbicide dose
# Avena sterilis [55] = test: Herbicidal activity against Avena sterilis accession P03 assessed as weed survival at 4 times field recommended herbicide dose
# Avena sterilis [56] = test: Herbicidal activity against Avena sterilis accession P02 assessed as weed survival at 4 times field recommended herbicide dose
# Avena sterilis [57] = test: Herbicidal activity against Avena sterilis accession P21S assessed as weed survival at 1 times field recommended herbicide dose
# Avena sterilis [58] = test: Herbicidal activity against Avena sterilis accession P13S assessed as weed survival at 1 times field recommended herbicide dose
smiles,measurement,setting,value
CCc1cc(C)cc(CC)c1-c1c(OC(=O)C(C)(C)C)n2n(c1=O)CCOCC2 [PINOXADEN],Survival,Avena sterilis [1],0%
same,Survival,Avena sterilis [2],20%
same,Survival,Avena sterilis [3],100%
same,Survival,Avena sterilis [4],100%
same,Survival,Avena sterilis [5],100%
same,Survival,Avena sterilis [6],100%
same,Survival,Avena sterilis [7],0%
same,Survival,Avena sterilis [8],0%
same,Survival,Avena sterilis [9],0%
same,Survival,Avena sterilis [10],20%
same,Survival,Avena sterilis [11],20%
same,GR50,Avena sterilis [12],6.6 gAi/ha
same,GR50,Avena sterilis [13],<40 gAi/ha
same,GR50,Avena sterilis [14],42 gAi/ha
same,GR50,Avena sterilis [15],<40 gAi/ha
same,GR50,Avena sterilis [16],<40 gAi/ha
same,GR50,Avena sterilis [17],<40 gAi/ha
same,GR50,Avena sterilis [18],<40 gAi/ha
same,GR50,Avena sterilis [19],<40 gAi/ha
same,Survival,Avena sterilis [20],0%
same,Survival,Avena sterilis [21],0%
same,Survival,Avena sterilis [22],0%
same,Survival,Avena sterilis [23],0%
same,Survival,Avena sterilis [24],0%
same,Survival,Avena sterilis [25],0%
same,Survival,Avena sterilis [26],0%
same,Survival,Avena sterilis [27],0%
same,Survival,Avena sterilis [28],97%
same,Survival,Avena sterilis [29],97%
same,Survival,Avena sterilis [30],80%
same,Survival,Avena sterilis [31],0%
same,Survival,Avena sterilis [32],0%
same,Survival,Avena sterilis [33],0%
same,Survival,Avena sterilis [34],0%
same,Survival,Avena sterilis [35],0%
same,Survival,Avena sterilis [36],0%
same,Survival,Avena sterilis [37],0%
same,Survival,Avena sterilis [38],0%
same,Survival,Avena sterilis [39],20%
same,Survival,Avena sterilis [40],20%
same,Survival,Avena sterilis [41],0%
same,Survival,Avena sterilis [42],0%
same,Survival,Avena sterilis [43],0%
same,Survival,Avena sterilis [44],0%
same,Survival,Avena sterilis [45],0%
same,Survival,Avena sterilis [46],0%
same,Survival,Avena sterilis [47],0%
same,Survival,Avena sterilis [48],0%
same,Survival,Avena sterilis [49],0%
same,Survival,Avena sterilis [50],0%
same,Survival,Avena sterilis [51],0%
same,Survival,Avena sterilis [52],0%
same,Survival,Avena sterilis [53],0%
same,Survival,Avena sterilis [54],63%
same,Survival,Avena sterilis [55],3%
same,Survival,Avena sterilis [56],0%
same,Survival,Avena sterilis [57],0%
same,Survival,Avena sterilis [58],0%
CCOC(=O)[C@@H](C)Oc1ccc(Oc2nc3ccc(Cl)cc3o2)cc1 [FENOXAPROP-P-ETHYL],Survival,Avena sterilis [1],57%
same,Survival,Avena sterilis [2],100%
same,Survival,Avena sterilis [3],97%
same,Survival,Avena sterilis [4],93%
same,Survival,Avena sterilis [5],90%
same,Survival,Avena sterilis [6],100%
same,Survival,Avena sterilis [7],53%
same,Survival,Avena sterilis [8],60%
same,Survival,Avena sterilis [9],0%
same,Survival,Avena sterilis [10],97%
same,Survival,Avena sterilis [11],97%
same,GR50,Avena sterilis [12],31 gAi/ha
same,GR50,Avena sterilis [13],250 gAi/ha
same,GR50,Avena sterilis [14],>2640 gAi/ha
same,GR50,Avena sterilis [15],303 gAi/ha
same,GR50,Avena sterilis [16],1440 gAi/ha
same,GR50,Avena sterilis [17],854 gAi/ha
same,GR50,Avena sterilis [18],860 gAi/ha
same,GR50,Avena sterilis [19],2070 gAi/ha
same,Survival,Avena sterilis [20],70%
same,Survival,Avena sterilis [21],0%
same,Survival,Avena sterilis [22],23%
same,Survival,Avena sterilis [23],0%
same,Survival,Avena sterilis [24],40%
same,Survival,Avena sterilis [25],40%
same,Survival,Avena sterilis [26],20%
same,Survival,Avena sterilis [27],37%
same,Survival,Avena sterilis [28],80%
same,Survival,Avena sterilis [29],87%
same,Survival,Avena sterilis [30],90%
same,Survival,Avena sterilis [31],83%
same,Survival,Avena sterilis [32],60%
same,Survival,Avena sterilis [33],20%
same,Survival,Avena sterilis [34],50%
same,Survival,Avena sterilis [35],60%
same,Survival,Avena sterilis [36],40%
same,Survival,Avena sterilis [37],67%
same,Survival,Avena sterilis [38],23%
same,Survival,Avena sterilis [39],80%
same,Survival,Avena sterilis [40],80%
same,Survival,Avena sterilis [41],90%
same,Survival,Avena sterilis [42],90%
same,Survival,Avena sterilis [43],80%
same,Survival,Avena sterilis [44],40%
same,Survival,Avena sterilis [45],100%
same,Survival,Avena sterilis [46],40%
same,Survival,Avena sterilis [47],97%
same,Survival,Avena sterilis [48],100%
same,Survival,Avena sterilis [49],80%
same,Survival,Avena sterilis [50],83%
same,Survival,Avena sterilis [51],80%
same,Survival,Avena sterilis [52],25%
same,Survival,Avena sterilis [53],0%
same,Survival,Avena sterilis [54],97%
same,Survival,Avena sterilis [55],50%
same,Survival,Avena sterilis [56],100%
same,Survival,Avena sterilis [57],0%
same,Survival,Avena sterilis [58],0%
